# pEC50: −log10 of the molar value. Entries after “also recorded” stand apart in the source; their conditions may differ.
# Tests used:
# [1] = system: mouse peritoneal macrophages; test: IFN-β secretion by mouse peritoneal macrophages (ELISA); format: cell-based; conditions: 4 hours
# Experimental: Thioglycollate-elicited macrophages were recovered 4 days after i.p. injection of 2 ml BBL thioglycollate medium, brewer modified (4% wt/vol; BD Biosciences) by peritoneal lavage with 5 ml phosphate buffered saline (PBS). The peritoneal macrophages were cultured in DMEM cell culture medium [DMEM containing 10% vol/vol FBS (Gemini Bio Products), 1% vol/vol penicillin and streptomycin (Life Technologies)] at 37° C. and 95% air/5% CO2.
# (§1) Cells were seeded onto 96-well plates at 1×10^5 cells per well and stimulated with a Diprovocim (dissolved in DMSO, and final DMSO concentrations (0.2%) were kept constant in all experiments) for 4 h. Mouse TNF, IL-6, or IFN-β, or human TNF in the supernatants were measured by ELISA kits according to the manufacturer's instructions (eBioscience and PBL Assay Science). Pretreatment with 20 μg/ml anti-TLR1, anti-TLR2 or isotype control antibody (eBioscience) was for 1 hour. Unless otherwise indicated, mouse cells were from wild type C57BL/6J mice.
# B16-OVA melanoma = test: Tumor-infiltrating leukocyte analysis in B16-OVA tumors (flow cytometry); format: in vivo, mouse
# Experimental: A total of 2×10^5 B16-OVA cells in 100 μL PBS were injected s.c. into the flank of each mouse to establish tumors (n=6 mice per treatment). 10 mg/kg Diprovocim-1 or 2 mg/kg alum with OVA (100 μg) was injected i.m. into mice on day 3 after tumor inoculation. Mice received a booster shot seven days after the first immunization. On day 3, 6, 9, and 12 after tumor inoculation, mice were also injected i.p. with 200 μg anti-mPD-L1.
# On day 14 after tumor inoculation, tumors were harvested, minced and filtered through a 40-μm strainer to obtain single-cell suspensions. Red blood cells were lysed with RBC lysis buffer (Sigma). After pelleting, cells were stained with a mixture of antibodies for 45 minutes, including anti-mouse CD45.2-PE or CD45.2-APC (BioLegend), anti-mouse CD3-FITC (BD Biosciences), anti-mouse CD4-BV786 (BD Biosciences), anti-mouse CD8-BV510 (BioLegend), anti-mouse CD44-PE-CF594 (BioLegend), APC-conjugated H-2Kb/OVA (SIINFEKL; SEQ ID NO: XX) tetramer (Baylor College of Medicine), anti-mouse F4/80-PE (Tonbo Bioscience), anti-mouse CD11b-BV605 (BioLegend), anti-CD11c-BV711 (BD Biosciences), anti-NK1.1-BV650 (BD Biosciences). Then, the cells were washed twice with PBS. Stained cells were analyzed with an LSRII instrument (BD Biosciences) and the flow cytometry data were analyzed using FlowJo software.
# mouse BMDC = test: TNF production by mouse bone marrow-derived dendritic cells (ELISA); format: cell-based; conditions: 4 hours, read-out: EC50, dose-dependent TNF production
# Experimental: (§2) For murine BMDCs, bone morrow cells were cultured in Petri dishes in 10 ml DMEM cell culture medium containing 10 ng/ml of murine GM-CSF (R&D Systems). On day 3 of culture, this was replaced with fresh GM-CSF medium. Loosely adherent cells were transferred to a fresh Petri dish and cultured for an additional 4 d. Human PBMC were purchased from Stemcell Technologies. THP-1 (ATCC) cells were differentiated by treatment with 100 nM PMA (Sigma) in RPMI cell culture medium [RPMI containing 10% vol/vol FBS (Gemini Bio Products), 1% penicillin and streptomycin (Life Technologies)] for 24 hours. After that, cells were washed with PBS and cultured in fresh RPMI cell culture medium for 24 hours before use in studies.
# as §1
# [2] = system: MAPK and canonical NF-κB signaling; test: Western blotting of THP-1 cell lysates; format: cell-based, human; conditions: THP-1 cells, 5 nM
# Experimental: Mouse peritoneal macrophages or human THP-1 cells (1×10^6 per well) were stimulated in 12-well plates with a Diprovocim at 500 nM for mouse cells or 5 nM for human cells for the indicated times and lysed directly in sample buffer (Sigma). Cell lysates were separated by SDS-PAGE and transferred to nitrocellulose membranes. Membranes were probed with the following antibodies: phospho-IKKα (Ser176)/IKKβ (Ser177), IκBα, phospho-p38 (Thr180/Tyr182), phospho-JNK (Thr183/Tyr185), phospho-ERK1/2 (Thr202/Tyr204) (Cell Signaling Technology) and β-Actin (Sigma).
# mice = test: In vivo adjuvant activity and toxicity in mice when co-injected with an immunogen; conditions: compared with LPS administration
# human TLR1/TLR2 = biological target: T1, human TLR1/TLR2 (Homo sapiens, UniProt O60603+Q15399); test: TNF in THP-1 cells pretreated with anti-TLR1 or anti-TLR2 antibody; format: cell-based; conditions: 250 pM, 4 hours; antibody 20 μg/ml, 1 hour pretreatment
# T1 construct: TNF in the supernatants of human THP-1 cells pretreated with control antibody, anti-TLR1 (20 μg/ml), or anti-TLR2 (20 μg/ml); host or cells: THP-1 cells differentiated with 100 nM PMA
# T1 sequence (Q15399 25-786): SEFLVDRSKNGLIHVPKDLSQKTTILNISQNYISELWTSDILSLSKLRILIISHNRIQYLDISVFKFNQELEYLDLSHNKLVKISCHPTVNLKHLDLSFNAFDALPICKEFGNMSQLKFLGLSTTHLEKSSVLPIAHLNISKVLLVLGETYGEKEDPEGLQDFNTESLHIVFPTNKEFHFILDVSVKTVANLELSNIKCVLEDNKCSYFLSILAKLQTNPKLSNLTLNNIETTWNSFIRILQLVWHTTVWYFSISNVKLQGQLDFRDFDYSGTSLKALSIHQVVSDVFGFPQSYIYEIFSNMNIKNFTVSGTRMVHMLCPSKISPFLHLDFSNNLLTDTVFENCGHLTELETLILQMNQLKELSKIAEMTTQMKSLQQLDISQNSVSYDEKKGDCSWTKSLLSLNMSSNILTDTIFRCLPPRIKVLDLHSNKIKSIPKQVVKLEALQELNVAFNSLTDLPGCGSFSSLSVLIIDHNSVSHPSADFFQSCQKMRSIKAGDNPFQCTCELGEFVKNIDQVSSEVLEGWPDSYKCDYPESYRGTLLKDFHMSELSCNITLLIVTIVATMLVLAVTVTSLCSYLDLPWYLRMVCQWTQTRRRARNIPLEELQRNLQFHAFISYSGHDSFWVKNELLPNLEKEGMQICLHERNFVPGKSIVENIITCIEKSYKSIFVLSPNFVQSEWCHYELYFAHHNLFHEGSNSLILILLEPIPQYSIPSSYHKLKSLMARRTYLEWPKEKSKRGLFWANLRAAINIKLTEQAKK
# T1 sequence (O60603 21-784): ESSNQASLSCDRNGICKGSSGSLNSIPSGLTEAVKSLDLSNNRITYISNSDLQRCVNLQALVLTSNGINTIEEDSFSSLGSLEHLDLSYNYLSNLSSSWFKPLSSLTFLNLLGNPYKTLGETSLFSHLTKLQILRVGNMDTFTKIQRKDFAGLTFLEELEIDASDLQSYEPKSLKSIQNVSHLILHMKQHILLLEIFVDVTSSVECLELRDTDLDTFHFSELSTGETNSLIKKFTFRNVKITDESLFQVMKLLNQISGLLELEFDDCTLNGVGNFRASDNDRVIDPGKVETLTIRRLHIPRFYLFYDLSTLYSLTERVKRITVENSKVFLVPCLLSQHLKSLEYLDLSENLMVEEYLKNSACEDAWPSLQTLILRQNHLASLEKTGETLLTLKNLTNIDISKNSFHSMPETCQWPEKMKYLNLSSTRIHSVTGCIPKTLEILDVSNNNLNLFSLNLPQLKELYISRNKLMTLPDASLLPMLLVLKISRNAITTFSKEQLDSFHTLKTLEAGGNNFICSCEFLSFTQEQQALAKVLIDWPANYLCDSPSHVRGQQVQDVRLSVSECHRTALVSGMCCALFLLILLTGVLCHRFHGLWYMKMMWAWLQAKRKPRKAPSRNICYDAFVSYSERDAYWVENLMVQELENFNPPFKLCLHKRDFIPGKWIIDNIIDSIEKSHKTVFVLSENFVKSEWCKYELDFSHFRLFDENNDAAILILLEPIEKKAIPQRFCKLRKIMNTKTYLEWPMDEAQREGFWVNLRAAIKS
# Experimental: as §1
# C57BL/6J mice = test: Immunization with OVA and measurement of antibody response; format: in vivo, mouse
# Experimental: EndoFit ovalbumin (OVA) with 98% purity minimum (SDS-PAGE) and endotoxin levels <1 EU/mg was purchased from Invivogen. Mice (4 mice per group) were immunized i.m. with 100 μg OVA mixed with vehicle (DMSO:Tween 80:saline=1:1:8), with 10 mg/kg Diprovocim, or with 2 mg/kg Alum (Alhydrogel adjuvant 2%, Invivogen). After 14 days, serum titers of OVA-specific IgG, IgG1, or IgG2b (SouthernBiotech) were measured by ELISA.
# human THP-1 cells = test: TNF production by PMA-differentiated human THP-1 cells (ELISA); format: cell-based; conditions: 4 hours
# Experimental: as §2, §1
smiles,measurement,setting,value
"O=C(N[C@H]1C[C@@H]1c1ccccc1)[C@@H]1CN(C(=O)c2ccc(C(=O)N3C[C@@H](C(=O)N[C@H]4C[C@@H]4c4ccccc4)[C@H](C(=O)N[C@H]4C[C@@H]4c4ccccc4)C3)cc2)C[C@H]1C(=O)N[C@H]1C[C@@H]1c1ccccc1 [Diprovocim-1, (3S,3'S,4S,4'S)-1,1′-Terephthaloylbis(N^3,N^4-bis((1S,2R)-2-phenylcyclo-propyl)pyrrolidine-3,4-dicarboxamide)]",type I IFN (IFN-β) production,[1],failed to stimulate type I IFN production
same,type I IFN (IFN-β) production,[1]; listed as Diprovocim,does not stimulate IFN-β secretion
same,frequency of leukocytes (TILs) in tumors compared to vehicle+OVA,"B16-OVA melanoma; day 14, immunization day 3 and 10, plus anti-PD-L1",significantly increased
same,frequency of NK cells in tumors,"B16-OVA melanoma; day 14, vs vehicle+OVA",increased
same,frequency of OVA-specific CD8 T cells in tumors,"B16-OVA melanoma; day 14, vs vehicle+OVA",increased
same,frequency of total and activated (CD44high) CD4 T cells in tumors,"B16-OVA melanoma; day 14, vs vehicle+OVA",increased
same,frequency of total and activated (CD44high) CD8 T cells in tumors,"B16-OVA melanoma; day 14, vs vehicle+OVA",increased
same,pEC50,mouse BMDC,8.17
same,phosphorylation of signaling proteins and IκBα degradation,[2],"induced phosphorylation of IκKα, IKKβ, p38, JNK, and ERK, as well as degradation of IκBα"
same,overt toxicity when used as an adjuvant,mice,did not display the overt toxicity
same,effect on THP-1 cells (TNF) after TLR1 or TLR2 antibody,human TLR1/TLR2,significantly reduced
same,adjuvant activity in antigen-specific antibody production in TLR2-deficient mice,C57BL/6J mice; Tlr2−/− mice,abrogated
same,serum OVA-specific IgG compared to OVA plus vehicle,"C57BL/6J mice; wild type mice, i.m. with 100 μg OVA, Diprovocim 10 mg/kg or alum 2 mg/kg, day 14",highly elevated
same,pEC50,"human THP-1 cells; Homo sapiens, THP-1 cells, read-out: EC50, dose-dependent TNF production",9.96
same,activation of TNF production compared with Pam3CSK4,human THP-1 cells; human THP-1 cells,more potent and efficacious; also recorded: more potent than Pam3CSK4

# Reference: patent US20210315992A1, “ADJUVANT EFFECT OF THE TLR1/2 AGONIST DIPROVOCIM SYNERGIZES WITH CHECKPOINT-INHIBITING ANTIBODIES TO ELIMINATE DISEASE” (The Board of Regents of the University of Texas System, priority 2018, published 2021)
